The values below are quoted from earlier work in patent US20110201579A1, “Method of Improving the Overall Health of a Patient by Application of Pregnenolone” (priority 2010, published 2011).

For data set [1] the following is noted: individuals with rheumatoid arthritis.
The conditions of data set [2]: rodents.
For data set [3] the following is noted: some people.

Consider `C[C@]12CCC(=O)C=C1CC[C@@H]1[C@@H]2[C@@H](O)C[C@@]2(C)[C@H]1CC[C@]2(O)C(=O)CO` [cortisol], for which, in data set [1], the “improvement of rheumatoid arthritis” value is “outstanding short-term improvements”.

With `CC(=O)[C@H]1CC[C@H]2[C@@H]3CC=C4C[C@@H](O)CC[C@]4(C)[C@H]3CC[C@]12C` [pregnenolone, Pregnenolone], the memory result in data set [2] was “one of the most effective and powerful memory boosters”. Moreover, the “energy, vision, memory, clarity of thinking, wellbeing, sexual enjoyment or libido” value in data set [3] was “improves energy, vision, memory, clarity of thinking, wellbeing, and often sexual enjoyment or libido”.
